Structures are written as SMILES. ≈ marks a conversion by molar mass, not a printed value.

The nature of assay [1]: Cytotoxicity against mouse EAC. Format: functional, cell-based. The conditions noted are these: Ehrlich.
Assay [2] in a line: Cytotoxicity against Strongylocentrotus intermedius developing egg. Format: functional.

By IC50 is commonly meant the midpoint of a concentration-inhibition curve. Read a low IC50 as higher potency. With `C=C[C@]1(C)C=C2[C@H](O)C[C@@H]3[C@](C)(CC[C@H](O)[C@]3(C)CO[C@@H]3O[C@H](CO)[C@@H](O)[C@@H](O)[C@@H]3O)[C@H]2CC1` [VIRESCENOSIDE O], the IC50 in assay [1] came out at 20 µM. Take `C=C[C@@]1(C)CCC2=C(C1)C(=O)C[C@H]1[C@@](C)(CO[C@@H]3O[C@H](CO)[C@@H](O)[C@@H](O)[C@@H]3O)[C@@H](O)CC[C@]21C` [VIRESCENOSIDE P]: the IC50 in assay [1] turned out to be 20 µM. Moreover, the MIC in assay [2] was found to be 5 µM (≈ 2.4 µg/mL).

The compound `C=C[C@@]1(C)CC[C@H]2C(=CC[C@@H]3[C@]2(C)CC[C@H](O)[C@]3(C)CO[C@@H]2O[C@H](CO)[C@@H](O)[C@H](O)[C@@H]2O)C1` [VIRESCENOSIDE Q] had an IC50 in assay [1] of 20 µM.

The values above are taken from ChEMBL document CHEMBL1148133, “New diterpene glycosides of the fungus Acremonium striatisporum isolated from a sea cucumber” (J Nat Prod, 2002).
